Measured values as given in patent US12692274B2, “Tetrahydroisoquinoline derivatives for the treatment of red blood disorders and inflammatory diseases” (Sanofi, priority 2020, dated 2026).
Several values for one entry are separate records, joined by “and”; a condition that tells them apart may be missing. Equal entries are not always repeated.

Legend:
[1] = tested on: NQO1 activation in BEAS-2B cells; assay: BEAS-2B cellular MTT assay of NQO1 activation, 0% HSA; type: cell-based
Procedure, shortened: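 BEAS-2B cells grown in BEBM with BEGM SingleQuots (no GA-1000), kept below 70% confluence, seeded on collagen plates at a density giving 95-100% confluence after 48 h. Plates seeded in medium without HSA (0% HSA condition).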

[2] = tested on: NQO1 activation in BEAS-2B cells; assay: BEAS-2B cellular MTT assay of NQO1 activation, 0.3% HSA; type: cell-based
Procedure, shortened: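 BEAS-2B cells (<70% confluent in culture, BEBM/SingleQuots without GA-1000) seeded in collagen plates with 0.3% or 0% HSA, reaching 95-100% confluency after 48 h at 37 °C, 5% CO2; MTT read-out.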

[3] = target: HIS-Keap1 full length / Biotin-Nrf2 (16-mer) (Homo sapiens, UniProt Q14145); assay: biochemical
[4] = Homo sapiens, serum free, read-out: BEAS EC50 (nM) serum free
[5] = serum free, read-out: BEAS EC50 (nM) serum free
[6] = Homo sapiens, BEAS+, read-out: BEAS+ EC50
[7] = Homo sapiens, Serum Free W, read-out: BEAS EC50 (nM) Serum Free W
[8] = Serum Free W, read-out: BEAS EC50 (nM) Serum Free W
[9] = BEAS+ W, read-out: BEAS+ W EC50
[10] = Homo sapiens, BEAS+ W, read-out: BEAS+ W EC50

HIS-Keap1 full length / Biotin-Nrf2 (16-mer), sequence (Q14145 whole entry): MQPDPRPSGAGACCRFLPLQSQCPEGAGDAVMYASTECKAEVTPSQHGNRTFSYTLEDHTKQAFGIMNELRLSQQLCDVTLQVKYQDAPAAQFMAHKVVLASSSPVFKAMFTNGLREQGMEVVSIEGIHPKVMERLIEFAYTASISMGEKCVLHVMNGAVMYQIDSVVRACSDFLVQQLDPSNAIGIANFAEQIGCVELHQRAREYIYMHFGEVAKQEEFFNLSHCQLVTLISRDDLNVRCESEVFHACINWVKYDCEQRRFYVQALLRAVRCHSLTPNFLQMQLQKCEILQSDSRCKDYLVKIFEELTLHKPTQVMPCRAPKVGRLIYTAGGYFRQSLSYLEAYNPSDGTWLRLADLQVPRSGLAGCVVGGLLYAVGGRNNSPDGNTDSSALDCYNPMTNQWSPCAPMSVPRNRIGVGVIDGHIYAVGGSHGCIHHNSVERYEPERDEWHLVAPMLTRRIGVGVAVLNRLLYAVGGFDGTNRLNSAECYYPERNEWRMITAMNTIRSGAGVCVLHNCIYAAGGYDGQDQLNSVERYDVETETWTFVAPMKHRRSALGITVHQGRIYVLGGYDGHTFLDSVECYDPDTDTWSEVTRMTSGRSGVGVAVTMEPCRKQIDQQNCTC

Row | SMILES | EC50 [1, 4] [nM] | EC50 [1, 5] | EC50 ([2]; BEAS+, read-out: BEAS+ EC50) | EC50 [2, 6] [nM] | IC50 [3] | EC50 [1, 7] [nM] | EC50 [1, 8] [nM] | EC50 [2, 9] | EC50 [2, 10] [nM]
1 | O=C(O)CC1c2ccc(nc2)OCCCCCc2cnc(c(F)c2)C(=O)N2CCc3ccc1cc3C2 (centres unmarked) [Compound 194] | 870 | 1100 nM | 829 nM | 1080 | 24.3 nM and 22.9 nM |  |  |  | 
2 | COc1cc2ccc1C(=O)N1CCc3ccc(cc3C1)[C@@H](CC(=O)O)c1cnc3c(nnn3CCCCC2)c1C [Compound 88] |  |  |  |  | 1 nM and 1.1 nM | 35.3 | 40.4 | 101 nM | 88.5
3 | Cc1c2cnc3c1nnn3CCCC/C=C/Cc1ccc(cc1)C(=O)N1CCc3ccc(cc3C1)[C@@H]2CC(=O)O [Compound 353] |  |  |  |  | 0.5 nM | 16.8 | 19.1 | 109 nM | 72.3
4 | C[C@H](C(=O)O)[C@@H]1c2ccc3c(c2)CN(CC3)C(=O)c2ccc(cc2)OCCCCCn2nnc3cc1ccc32 [Compound 231] | 153 | 228 nM | 227 nM | 273 | 3.2 nM |  |  |  | 
5 | Cc1cc2ncc1[C@@H](CC(=O)O)c1ccc3c(c1)CN(CC3)C(=O)c1c(F)cc(cc1F)CCCCCO2 [Compound 122] |  |  |  |  | 52.8 nM and 42.8 nM | 17.6 | 30.2 | 54.2 nM | 47
6 | Cc1c2cnc3c1nnn3CCCCCCCc1ccc(cc1)C(=O)N1CCc3ccc(cc3C1)[C@@H]2CC(=O)O [Compound 77] |  |  |  |  | 0.4 nM and 0.8 nM | 11.7 | 13.7 | 45.3 nM | 34.5
7 | COc1cc2ccc1CCCCCCn1nnc3c(C)c(ccc31)[C@H](CC(=O)O)c1ccc3c(c1)CN(CC3)C2=O [Compound 102] |  |  |  |  | 4.5 nM and 4.2 nM | 25.1 | 24.6 | 104 nM | 117
8 | Cc1c2ccc3c1nnn3CCCCCCOc1cc(F)c(c(F)c1)C(=O)N1CCc3ccc(cc3C1)C2CC(=O)O (centres unmarked) [Compound 315] | 2.2 |  |  | 25.9 | 0.7 nM and 0.3 nM |  |  |  | 
9 | O=C(O)CC1c2cnc(nc2)OCCCCOc2ccc(cc2)C(=O)N2CCc3ccc1cc3C2 (centres unmarked) [Compound 183] |  |  |  |  | 642 nM and 571 nM | > 1000 |  |  | > 10000
10 | Cc1cc2ccc1C(=O)N1CCc3ccc(cc3C1)C(CC(=O)O)c1cnc(cc1C)OCCCCO2 (centres unmarked) [Compound 151] | 216 | 170 nM | 121 nM | 230 | 2.4 nM and 2.7 nM |  |  |  | 
11 | O=C(O)C[C@H]1c2ccc(nc2)OCCCCCc2ccc(cc2)C(=O)N2CCc3ccc1cc3C2 [Compound 172] | 79.2 | 73 nM | 263 nM | 188 | 216 nM and 227 nM |  |  |  | 
12 | Cc1c2ccc3c1nnn3CCCCCOc1ccc(c(F)c1)C(=O)N1CCc3ccc(cc3C1)C2CC(=O)O (centres unmarked) [Compound 316] | 141 |  |  | 77.9 | 1.6 nM and 0.9 nM |  |  |  | 
13 | C[C@H](C(=O)O)[C@@H]1c2ccc(nc2)OCCCCCc2ccc(cc2)C(=O)N2CCc3ccc1cc3C2 (single isomer, unassigned) [Compound 127] | 0.3 |  | 0.6 nM | 0.4 | 3.8 nM and 3.9 nM |  |  |  | 
14 | COCCn1c2cc3cc(ccc31)CCCCCCn1nnc3c(C)c(ccc31)[C@@H](CC(=O)O)c1ccc3c(c1)CN(CC3)C2=O [Compound 85] |  |  |  |  | 1.6 nM and 1.2 nM | 39.4 | 61.3 | 244 nM | 249
15 | O=C(O)CC1c2ccc3c(c2)CN(CC3)C(=O)c2ncc(cc2F)CCCCCCn2nnc3c(Cl)c1ccc32 (centres unmarked) [Compound 224] | 400 | 296 nM | 314 nM | 320 | 2.1 nM and 2 nM |  |  |  | 
16 | O=C(O)CC1c2ccc(cc2)OCCCCCc2ccc(cc2)C(=O)N2CCc3ccc1cc3C2 (centres unmarked) [Compound 396] | 80.5 | 78.2 nM | 176 nM | 204 | 94.7 nM and 138 nM |  |  |  | 
17 | C[C@@H](C(=O)O)[C@@H]1c2ccc(nc2)OCCCCCc2cc(F)c(c(F)c2)C(=O)N2CCc3ccc1cc3C2 [Compound 164] | 16 | 20.3 nM | 34 nM | 32.6 | 51.2 nM and 59.3 nM |  |  |  | 
18 | Cc1c2ccc3c1nnn3CCCCCCc1c(F)c(F)c(c(F)c1F)C(=O)N1CCc3ccc(cc3C1)[C@@H]2CC(=O)O [Compound 90] |  |  |  |  | 1.1 nM | 1.3 | 1 | 3.5 nM | 3.6
19 | Cc1c2ccc3c1nnn3CCCCCc1ccc3c(c1)c(cn3C)C(=O)N1CCc3ccc(cc3C1)C2CC(=O)O (centres unmarked) [Compound 362, 2-(5,33-dimethyl-2-oxo-1,5,15,16,17-pentazaheptacyclo[22.5.3.26,9.118,22.03,7.015,19.027,31]pentatriaconta-3,6,8,16,18(33),19,21,24(32),25,27(31),34-undecaen-23-yl)acetic Acid] | 3250 | 3760 nM |  | > 10000 | 50 nM and 47.3 nM |  |  |  | 
20 | Cc1c2ccc3c1nnn3CCCCCCc1ccc(cc1F)C(=O)N1CCc3ccc(cc3C1)C2CC(=O)O (centres unmarked) [Compound 264] | 3.7 |  |  | 5.4 | 2.7 nM and 2.9 nM |  |  |  | 

Row | SMILES | EC50 [1, 4] [nM] | EC50 [1, 5] | EC50 ([2]; BEAS+, read-out: BEAS+ EC50) | EC50 [2, 6] [nM] | IC50 [3] | EC50 [1, 7] [nM] | EC50 [1, 8] [nM] | EC50 [2, 9] | EC50 [2, 10] [nM]
21 | COc1cc2ccc1C(=O)N1CCc3ccc(cc3C1)[C@H](CC(=O)O)c1cnc3c(nnn3CCCCC2)c1C [Compound 89] |  |  |  |  | 0.8 nM and 0.9 nM | 30.6 | 22.8 | 48.5 nM | 38.7
22 | Cc1c2ccc3c1nnn3CCCCCc1ccc(cc1)C(=O)N1CCc3ccc(cc3C1)[C@H]2[C@H](C)C(=O)O [Compound 133] |  |  |  |  | 1.4 nM and 1.3 nM | 16 | 31 | 38.9 nM | 39.4
23 | Cc1c2ccc3c1nnn3CCCCCCc1ccc(cc1OC(F)(F)F)C(=O)N1CCc3ccc(cc3C1)[C@@H]2CC(=O)O [Compound 42] |  |  |  |  | 0.9 nM and 1.4 nM | 8.7 |  | 54.1 nM | 35
24 | C[C@H](C(=O)O)[C@@H]1c2ccc(nc2)OCCCCCc2ccc(cc2)C(=O)N2CCc3ccc1cc3C2 [Compound 55] |  |  |  |  | 215 nM and 226 nM and 220 nM and 201 nM | 125 | 147 | 354 nM | 482
25 | Cc1c2cnc3c1nnn3CCCCCc1ccc3c(c1)cc(n3C)C(=O)N1CCc3ccc(cc3C1)C2CC(=O)O (centres unmarked) [Compound 143] |  |  |  |  | 0.7 nM | 2.2 | 2.6 | 10.6 nM | 10.3
26 | O=C(O)CC1c2ccc3c(c2)CN(CC3)C(=O)c2ccc(cc2F)CCCCCn2nnc3cc1ccc32 (centres unmarked) [Compound 252] | 15.5 |  |  | 21.2 | 1.2 nM and 1.3 nM (2×) and 1.4 nM |  |  |  | 
27 | C[C@H](C(=O)O)[C@H]1c2ccc3c(c2)CN(CC3)C(=O)c2ccc(cc2)OCCCCCCn2nnc3cc1ccc32 [Compound 323] | 135 |  |  | 386 | 1.2 nM and 1.8 nM |  |  |  | 
28 | O=C(O)CC1c2ccc3c(c2)CN(CC3)C(=O)c2ncc(cc2F)OCCCCCCn2nnc3c(Cl)c1ccc32 (centres unmarked) [Compound 213] | 118 | 98.4 nM | 126 nM | 147 | 1.5 nM and 1.6 nM |  |  |  | 
29 | Cc1cc2ncc1C(CC(=O)O)c1ccc3c(c1)CN(CC3)C(=O)c1cn(C)c3ccc(cc13)CCCCCO2 (centres unmarked) [Compound 126] |  |  |  |  | > 990 nM | > 1000 |  |  | > 10000
30 | Cc1c2ccc3c1nnn3CCCCCCc1ccc(cc1OC(F)F)C(=O)N1CCc3ccc(cc3C1)[C@@H]2CC(=O)O [Compound 37] |  |  |  |  | 1 nM and 0.8 nM | 18.1 | 18.2 | 72.3 nM | 100
31 | Cc1cc2ccc1C(=O)N1CCc3ccc(cc3C1)C(CC(=O)O)c1ccc3c(nnn3CCCCCCO2)c1C (centres unmarked) [Compound 297] | 1.8 |  |  | 2.9 | 0.2 nM |  |  |  | 
32 | Cc1c2ccc3c1nnn3CCCCCCc1ccc(c(F)c1)C(=O)N1CCc3ccc(cc3C1)[C@@H]2[C@@H](C)C(=O)O [Compound 167] |  |  |  |  | 12.3 nM and 14.1 nM | 34.7 | 36.6 | 133 nM | 103
33 | Cc1cc2ccc1C(=O)N1CCc3ccc(cc3C1)C(CC(=O)O)c1ccc3c(nnn3CCCCCO2)c1C (centres unmarked) [Compound 335] | 35 |  |  | 36.1 | 2.5 nM and 2.9 nM and 6.4 nM and 1.3 nM |  |  |  | 
34 | O=C(O)CC1c2cnc(nc2)OCCCCc2ccc(c(Cl)c2)C(=O)N2CCc3ccc1cc3C2 (centres unmarked) [Compound 226] | > 10000 |  |  | > 10000 | 245 nM |  |  |  | 
35 | Cc1c2ccc3c1nnn3CCCCCc1ccc(nc1)C(=O)N1CCc3ccc(cc3C1)C2CC(=O)O (centres unmarked) [Compound 228] | 524 | 471 nM | 667 nM | 771 | 1.3 nM |  |  |  | 
36 | Cc1cc2ncc1C(CC(=O)O)c1ccc3c(c1)CN(CC3)C(=O)c1c(F)cc(cc1F)CCCCCO2 (centres unmarked) [Compound 161] | 1.4 | 0.7 nM and 1.1 nM | 6 nM and 7.5 nM and 5.2 nM | 7.8 | 2.5 nM and 2.3 nM and 1 nM (2×) |  |  |  | 
37 | O=C(O)CC1c2ccc(cc2)OCCCCCCOc2ccc(cc2)C(=O)N2CCc3ccc1cc3C2 (centres unmarked) [Compound 391] | 8.8 | 7.9 nM | 1950 nM | 2060 | 276 nM and 265 nM |  |  |  | 
38 | Cc1c2ccc3c1nnn3CCCCCCc1ccc(c(F)c1)C(=O)N1CCc3ccc(cc3C1)[C@H]2[C@H](C)C(=O)O [Compound 166] |  |  |  |  | 0.7 nM and 0.6 nM | 1.1 |  | 2.7 nM and 2.9 nM and 4.2 nM | 2.2
39 | Cc1c2ccc3c1nnn3CCCCCOc1ccc(c(F)c1F)C(=O)N1CCc3ccc(cc3C1)C2CC(=O)O (centres unmarked) [Compound 306] | 68.1 |  | 90.1 nM | 134 | 0.1 nM and < 0.1 nM |  |  |  | 
